The record followed here is patent publication US8017612B2, “Piperazine compound and use thereof as a HCV polymerase inhibitor” (priority 2006, dated 2011).

Experiment [1] concerns the target T1, HCV polymerase (NS5B) type 1b (Hepatitis C virus genotype 1b, UniProt P26663).
T1 construct: a region encoding NS5B (J Virol 1991 March, 65(3), 1105-13, 544 amino acids after deletion of 47 amino acids on the C-terminal); 6xHis (C); made in house; host or cells: Escherichia coli
Description: Assay of enzyme (HCV polymerase) inhibitory activity, type 1b enzyme. The settings on record: HCV polymerase inhibitory activity IC50, 1b, type 1b enzyme. The class given is biochemical, HCV BK strain (type 1b). In a few lines:
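NS5B from HCV BK strain (type 1b), C-terminal 47 aa deleted, C-terminal His6-tagged, E. coli-expressed, 0.5 μg/ml, with ~450 nt substrate RNA carrying the 3′ UTR (polyU, 3′X) at 5 μg/ml. Incubation 60 min at 25 °C with 50 μM ATP/GTP/CTP, 2 μM UTP plus [3H]UTP, pH 7.5 Tris.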

In experiment [2] the target is T2, HCV polymerase (NS5B) type 1a (Hepatitis C virus genotype 1a, UniProt P26664).
T2 construct: made in house; host or cells: Escherichia coli (by the 'similar method' of the 1b enzyme)
Description: Assay of enzyme (HCV polymerase) inhibitory activity, type 1a enzyme. Conditions: HCV polymerase inhibitory activity IC50, 1a, type 1a enzyme. The class given is biochemical, HCV type 1a (cloned from the blood of patients). A digest of the protocol:
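Patient-derived type 1a NS5B (C-terminal 47-aa deletion, His-tagged, E. coli-expressed) at 1.5 μg/ml was reacted with 5 μg/ml 3′UTR-containing substrate RNA, 50 μM ATP/GTP/CTP, 2 μM UTP plus [3H]UTP, pH 7.5, 25° C for 60 min. TCA-precipitated RNA radioactivity was counted; IC50 from ± compound.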

The term pIC50 denotes the IC50 on a negative log10 scale, so that one unit is a factor of ten.

Molecules are shown by their SMILES. pIC50: −log10 of the molar value.

`O=C(NCc1ccc(OC(F)(F)F)cc1)[C@H]1CN(c2nc3nc(CO)ncc3s2)CCN1S(=O)(=O)c1ccc(C(F)(F)F)cc1` [Example 1052, (R)-4-(5-hydroxymethyl-thiazolo[4,5-d]pyrimidin-2-yl)-1-(4-trifluoromethyl-benzenesulfonyl)-piperazine-2-carboxylic acid 4-trifluoromethoxy-benzylamide]: the pIC50 in experiment [1] and in experiment [2] was over 7.00 each time.

On to `O=C(NCc1ccc(OC(F)F)cc1)[C@H]1CN(c2nn3ccc(=O)nc3s2)CCN1S(=O)(=O)c1ccc(OC(F)(F)F)cc1` [Example 1053, (R)-4-(7-oxo-7H-[1,3,4]thiadiazolo[3,2-a]pyrimidin-2-yl)-1-(4-trifluoromethoxy-benzenesulfonyl)-piperazine-2-carboxylic acid 4-difluoromethoxy-benzylamide], for which the negative logarithm of the IC50 (pIC50) in experiment [1] and in experiment [2] was over 7.00 in each case.

Consider `CON(C)C(=O)c1ncc2sc(N3CCN(S(=O)(=O)c4ccc(OC(F)(F)F)cc4)[C@@H](C(=O)NCc4ccc(OC(F)(F)F)cc4)C3)nc2n1` [Example 1054, 2-[(R)-4-(4-trifluoromethoxy-benzenesulfonyl)-3-(4-trifluoromethoxy-benzylcarbamoyl)-piperazin-1-yl]-thiazolo[4,5-d]pyrimidine-5-carboxylic acid methoxy-methyl-amide], for which the pIC50 in experiment [1] and in experiment [2] was over 7.00 in each case.

As for `COCc1nc(N)c2sc(N3CCN(S(=O)(=O)c4ccc(OC(F)(F)F)cc4)[C@@H](C(=O)NCc4ccc(OC(F)(F)F)cc4)C3)nc2n1` [Example 1055, (R)-4-(7-amino-5-methoxymethyl-thiazolo[4,5-d]pyrimidin-2-yl)-1-(4-trifluoromethoxy-benzenesulfonyl)-piperazine-2-carboxylic acid 4-trifluoromethoxy-benzylamide], the pIC50 in experiment [1] and in experiment [2] was over 7.00 each time.

With `O=C(NCc1ccc(OC(F)(F)F)cc1)[C@H]1CN(c2nc3nc(CN4CCCC4)ncc3s2)CCN1S(=O)(=O)c1ccc(OC(F)(F)F)cc1` [Example 1056, (R)-4-(5-pyrrolidin-1-ylmethyl-thiazolo[4,5-d]pyrimidin-2-yl)-1-(4-trifluoromethoxy-benzenesulfonyl)-piperazine-2-carboxylic acid 4-trifluoromethoxy-benzylamide], the pIC50 in experiment [1] and in experiment [2] was over 7.00 each time.

With `O=C(NCc1ccc(OC(F)F)cc1)[C@H]1CN(c2nn3ccc(=O)nc3s2)CCN1S(=O)(=O)c1ccc(C(F)(F)F)cc1` [Example 1057, (R)-4-(7-oxo-7H-[1,3,4]thiadiazolo[3,2-a]pyrimidin-2-yl)-1-(4-trifluoromethyl-benzenesulfonyl)-piperazine-2-carboxylic acid 4-difluoromethoxy-benzylamide], the pIC50 in experiment [1] and in experiment [2] was over 7.00 throughout.

Consider `O=C(NCc1ccc(OC(F)(F)F)cc1)[C@H]1CN(c2nn3ccc(=O)nc3s2)CCN1S(=O)(=O)c1ccc(OC(F)F)cc1` [Example 1058, (R)-1-(4-difluoromethoxy-benzenesulfonyl)-4-(7-oxo-7H-[1,3,4]thiadiazolo[3,2-a]pyrimidin-2-yl)-piperazine-2-carboxylic acid 4-trifluoromethoxy-benzylamide], for which the pIC50 in experiment [1] and in experiment [2] was over 7.00 throughout.

Regarding `O=C(NCc1ccc(OC(F)(F)F)cc1)[C@H]1CN(c2nn3ccc(=O)nc3s2)CCN1S(=O)(=O)c1ccc(C(F)(F)F)cc1` [Example 1059, (R)-4-(7-oxo-7H-[1,3,4]thiadiazolo[3,2-a]pyrimidin-2-yl)-1-(4-trifluoromethyl-benzenesulfonyl)-piperazine-2-carboxylic acid 4-trifluoromethoxy-benzylamide], the negative logarithm of the IC50 (pIC50) in experiment [1] and in experiment [2] was over 7.00 each time.

`CC(O)c1ncc2sc(N3CCN(S(=O)(=O)c4ccc(OC(F)(F)F)cc4)[C@@H](C(=O)NCc4ccc(OC(F)(F)F)cc4)C3)nc2n1` (stereo partly drawn) [Example 1060, (R)-4-[5-(1-hydroxy-ethyl)-thiazolo[4,5-d]pyrimidin-2-yl]-1-(4-trifluoromethoxy-benzenesulfonyl)-piperazine-2-carboxylic acid 4-trifluoromethoxy-benzylamide]: the pIC50 in experiment [1] and in experiment [2] was over 7.00 each time.

Take `O=C(NCc1ccc(OC(F)F)c(F)c1)[C@H]1CN(c2nc3nc(C(F)(F)F)ncc3s2)CCN1S(=O)(=O)c1ccc(OC(F)(F)F)cc1` [Example 1061, (R)-1-(4-trifluoromethoxy-benzenesulfonyl)-4-(5-trifluoromethyl-thiazolo[4,5-d]pyrimidin-2-yl)-piperazine-2-carboxylic acid 4-difluoromethoxy-3-fluoro-benzylamide]: the pIC50 in experiment [1] and in experiment [2] was over 7.00 throughout.

Turning to `O=C(NCc1ccc(OC(F)(F)F)cc1)[C@H]1CN(c2nc3ccc(=O)[nH]c3s2)CCN1S(=O)(=O)c1ccc(OC(F)(F)F)cc1` [Example 1062, (R)-4-(5-oxo-4,5-dihydro-thiazolo[5,4-b]pyridin-2-yl)-1-(4-trifluoromethoxy-benzenesulfonyl)-piperazine-2-carboxylic acid 4-trifluoromethoxy-benzylamide], the negative logarithm of the IC50 (pIC50) in experiment [1] and in experiment [2] was over 7.00 throughout.

In the case of `O=C(NCc1ccc(OC(F)F)cc1)[C@H]1CN(c2nn3ccc(=O)nc3s2)CCN1S(=O)(=O)c1ccc(OC(F)F)cc1` [Example 1063, (R)-1-(4-difluoromethoxy-benzenesulfonyl)-4-(7-oxo-7H-[1,3,4]thiadiazolo[3,2-a]pyrimidin-2-yl)-piperazine-2-carboxylic acid 4-difluoromethoxy-benzylamide], the pIC50 in experiment [1] and in experiment [2] was over 7.00 each time.

As for `CCCc1ccc(CNC(=O)[C@H]2CN(c3nc4c(C(=O)OCC)cncc4s3)CCN2S(=O)(=O)c2ccc(CC)cc2)cc1` [Example 1064, 2-[(R)-4-(4-ethyl-benzenesulfonyl)-3-(4-propyl-benzylcarbamoyl)-piperazin-1-yl]-thiazolo[5,4-c]pyridine-7-carboxylic acid ethyl ester], the pIC50 in experiment [1] and in experiment [2] was over 7.00 throughout.

With `CCCc1ccc(CNC(=O)[C@H]2CN(c3nc4c(C(=O)O)cncc4s3)CCN2S(=O)(=O)c2ccc(CC)cc2)cc1` [Example 1065, 2-[(R)-4-(4-ethyl-benzenesulfonyl)-3-(4-propyl-benzylcarbamoyl)-piperazin-1-yl]-thiazolo[5,4-c]pyridine-7-carboxylic acid], the pIC50 in experiment [1] and in experiment [2] was over 7.00 throughout.

As for `O=C(NCc1ccc(OC(F)F)cc1)[C@H]1CN(c2nn3c(C(F)(F)F)cc(=O)nc3s2)CCN1S(=O)(=O)c1ccc(OC(F)(F)F)cc1` [Example 1066, (R)-4-(7-oxo-5-trifluoromethyl-7H-[1,3,4]thiadiazolo[3,2-a]pyrimidin-2-yl)-1-(4-trifluoromethoxy-benzenesulfonyl)-piperazine-2-carboxylic acid 4-difluoromethoxy-benzylamide], the pIC50 in experiment [1] and in experiment [2] was over 7.00 throughout.

For `O=C(NCc1ccc(OC(F)(F)F)cc1)[C@H]1CN(c2nn3c(C(F)(F)F)cc(=O)nc3s2)CCN1S(=O)(=O)c1ccc(C(F)(F)F)cc1` [Example 1067, (R)-4-(7-oxo-5-trifluoromethyl-7H-[1,3,4]thiadiazolo[3,2-a]pyrimidin-2-yl)-1-(4-trifluoromethyl-benzenesulfonyl)-piperazine-2-carboxylic acid 4-trifluoromethoxy-benzylamide], the pIC50 in experiment [1] and in experiment [2] was over 7.00 throughout.

As to `O=C(NCc1ccc(OC(F)F)cc1)[C@H]1CN(c2nn3c(C(F)(F)F)cc(=O)nc3s2)CCN1S(=O)(=O)c1ccc(C(F)(F)F)cc1` [Example 1068, (R)-4-(7-oxo-5-trifluoromethyl-7H-[1,3,4]thiadiazolo[3,2-a]pyrimidin-2-yl)-1-(4-trifluoromethyl-benzenesulfonyl)-piperazine-2-carboxylic acid 4-difluoromethoxy-benzylamide], the pIC50 in experiment [1] and in experiment [2] was over 7.00 throughout.

With `O=C(NCc1ccc(OC(F)(F)F)cc1)[C@H]1CN(c2nc3nc(C4CCC4)ncc3s2)CCN1S(=O)(=O)c1ccc(OC(F)(F)F)cc1` [Example 1069, (R)-4-(5-cyclobutyl-thiazolo[4,5-d]pyrimidin-2-yl)-1-(4-trifluoromethoxy-benzenesulfonyl)-piperazine-2-carboxylic acid 4-trifluoromethoxy-benzylamide], the pIC50 in experiment [1] and in experiment [2] was over 7.00 throughout.

On to `COCCc1ncc2sc(N3CCN(S(=O)(=O)c4ccc(OC(F)(F)F)cc4)[C@@H](C(=O)NCc4ccc(OC(F)(F)F)cc4)C3)nc2n1` [Example 1070, (R)-4-[5-(2-methoxy-ethyl)-thiazolo[4,5-d]pyrimidin-2-yl]-1-(4-trifluoromethoxy-benzenesulfonyl)-piperazine-2-carboxylic acid 4-trifluoromethoxy-benzylamide], for which the pIC50 in experiment [1] and in experiment [2] was over 7.00 in each case.
